≈ marks a conversion by molar mass, not a printed value.
Columns and labels:
[1] = system: FtsZ GFP fusion stain of B. subtilis 168; assay: Z-ring visualization, GFP tagged FtsZ in B. subtilis 168; type: cell-based; conditions: 6 μM test compound, 4 hours
Experimental: Procedure: A single colony of FtsZ GFP fusion stain of B. subtilis 168 was grown in 5 ml 2×TY medium with 35 mg/L chloramphenicol for 14 hours at 30° C. An overnight culture was then diluted to an OD600 of 0.01 by 2×TY medium containing the absence (DMSO) and presence of 6 μM test compounds and 40 μM of IPTG, it grew at 30° C. after 4 hours of incubation; the cells were pelleted and re-suspended in 300 μL PBS buffer containing 1% agarose. 10 μL suspensions were then placed on the microscopic slide. The morphology of bacterial cell was observed under a fluorescent and phase-contrast microscope at 40× magnification, using the software of Olympus FSX100® Bio Imaging Navigator to capture images.

[2] = system: S. aureus ATCC BAA-1720 (methicillin resistant); assay: MIC against clinically isolated strain 3; type: cell-based; conditions: Staphylococcus aureus, ATCCBAA1720
Experimental: (§1) Procedure of Antimicrobial susceptibility test: The MIC value of compounds was measured in the antimicrobial susceptibility test using the broth microdilution procedure in accordance with the CLSI guidelines.^21 Cation-adjusted Mueller Hinton broth (CA-MHB) was used for all the S. aureus strains in the assay. Cells in exponential phase of growth were diluted to approximately 5×10^5 cfu/mL. Stock solutions of each compound were freshly dissolved in dimethyl sulfoxide (DMSO). Then, serial dilutions of each compound in CA-MHB medium were added into 96-well microplate. The final percentage of DMSO in the assay was 1%. Control experiments were performed with 1% DMSO instead of the compound solution. After being incubated at 37° C. for 18 h, OD600 value of cells was measured on a microplate reader and the percentage of bacterial cell inhibition with respect to controls was calculated. The MIC value was defined as the lowest compound concentration at which the growth of bacteria was inhibited by ≥90%. Three independent assays were performed for each compound.
(§2) Results: Three compounds, namely 14av_amine16, 14dv_amine16 and 14dv_amine06, were selected to be tested against nine in-house clinically isolated bacterial strains including S. aureus ATCC29247, which is an ampicillin resistant strain, S. aureus ATCC BAA-41, ATCC BAA-1717, ATCC BAA-1720, ATCC 43300 which are methicillin resistant strains and four USA300 strains, (#417, #757, #1799 and #2690), which are the predominant strain type of community-associated MRSA strains in the United States.

[3] = system: USA300 #2690 (community-associated MRSA); assay: MIC against clinically isolated strain 9; type: cell-based, S. aureus; conditions: Staphylococcus aureus
Experimental: as §1, §2

[4] = system: S. aureus ATCC BAA-41 (methicillin resistant); assay: MIC against clinically isolated strain 4; type: cell-based; conditions: Staphylococcus aureus, ATCCBAA41
Experimental: as §1, §2

B. subtilis 168 = assay: MIC against B. subtilis 168; type: cell-based; conditions: Bacillus subtilis
[5] = system: S. aureus ATCC 43300 (methicillin resistant); assay: MIC against clinically isolated strain 5; type: cell-based; conditions: Staphylococcus aureus, ATCC43300
Experimental: as §1, §2

MRSA ATCC 43300 = assay: Antimicrobial efficacy in G. mellonella model of infection; type: in vivo, Galleria mellonella
Experimental: Procedure: Compound 14av_amine16 was tested in a Galleria mellonella model, which are an easy and inexpensive in vivo model with no ethical constraints for investigating antibacterial activity of a compound.^22 The G. mellonella model of S. aureus infection was used as previously described.^24 Briefly, 1 mL aliquots of overnight cultures of S. aureus 43300 were pelleted by centrifugation and washed with sterile PBS before being resuspended in 100 μL of PBS. G. mellonella larvae (N=10) that weighed 200-300 mg were then inoculated with 10 μL of S. aureus (2.5×10^6 CFU) into the last left proleg. Larvae were then treated with compounds at 1 h before bacterial inoculation. Treatments were performed in the same manner as infection, except that compounds were injected into the next left proleg moving toward the head of the larvae. […] Data was analyzed for statistical significance using a log rank and χ square test with 1 degree of freedom. Various concentrations of compound 14av_amine16 dissolved in 50% PEG in saline (0 mg/Kg, 50 mg/Kg and 100 mg/Kg) were injected into the hemocoel of last-instar G. mellonella larvae and survival was scored over time.
The efficacy of compound 14av_amine16 against G. mellonella larvae infected with MRSA ATCC 43300 was investigated. Inoculation of lethal dose of 2.5×10^6 CFU/larva of MRSA ATCC 43300 led to a significant death rate. […]

[6] = system: USA300 #417 (community-associated MRSA); assay: MIC against clinically isolated strain 6; type: cell-based, S. aureus; conditions: Staphylococcus aureus
Experimental: as §1, §2

[7] = system: S. aureus ATCC 29247 (ampicillin resistant strain); assay: MIC against clinically isolated strain 1; type: cell-based; conditions: Staphylococcus aureus, ATCC29247
Experimental: as §1, §2

[8] = system: USA300 #1799 (community-associated MRSA); assay: MIC against clinically isolated strain 8; type: cell-based, S. aureus; conditions: Staphylococcus aureus
Experimental: as §1, §2

CCC(CC)c1cc(CCN2CCCN(Cc3ccc(C(F)(F)F)cc3)CC2)nc(-c2ccncc2)n1 [Compound 14av_amine16, 1-(2-(6-(pentan-3-yl)-2-(pyridin-4-yl)pyrimidin-4-yl)ethyl)-4-(4-(trifluoromethyl)benzyl)-1,4-diazepane]
Z-ring localization [1]: obvious mislocalization of the Z-ring | MIC [2]: 12 µM (≈ 6.14 µg/mL) | MIC [3]: 12 µM (≈ 6.14 µg/mL) | MIC [4]: 12 µM (≈ 6.14 µg/mL) | MIC (B. subtilis 168): 12 µM (≈ 6.14 µg/mL) | MIC [5]: 12 µM (≈ 6.14 µg/mL) | survival time of infected larvae (MRSA ATCC 43300; 50 mg/Kg, lethal dose 2.5×10^6 CFU/larva MRSA ATCC 43300): 36 h | survival rate of infected larvae over the infection period (MRSA ATCC 43300; 100 mg/Kg, lethal dose MRSA ATCC 43300, 48 h): 20% | MIC [6]: 12 µM (≈ 6.14 µg/mL) | MIC [7]: 8 µM (≈ 4.09 µg/mL) | MIC [8]: 12 µM (≈ 6.14 µg/mL)

— patent US9951039B2, “Pyrimidines for treatment of bacterial infections” (The Hong Kong Polytechnic University, priority 2016, dated 2018)
